Laboratory results reported in patent publication EP4177246A1, “FUSED OXAZEPINES AS INHIBITORS OF PEROXIREDOXINS” (Centro Atlántico del Medicamento, SA, priority 2021, dated 2023).

How the values were obtained:
HEL 92.1.7 = assay: MTT cell viability assay, HEL cells; type: cell-based; settings: Homo sapiens, 48 h drug exposure
Method: HEL 92.1.7 [American Type Culture Collection (ATCC) reference number TIB-180]. This a human cancer cell line derived from the bone marrow of a person with erythroleukemia, which is a form of AML.
(§1) Cell viability was assayed by measuring the mitochondrial reduction of the tetrazolium salt 3-(4,5-methyltiazol-2yl)-2,5diphenyl-tetrazolium bromide] (MTT) (Applichen; A2231,0010) [Mosmann T. J Immunol Methods. 1983 16;65(1-2):55-63 (ref. 36); Chuan Y-C et al 2010. Oncogene. 29 (10), 1531-1542 (ref. 37)]. Cells were seeded in 96-well plates in medium (either RPMI, DMEM or McCoys depending on the recommendations from the ATCC) supplemented with 10% FBS (Lonza Cat. N°: 14-502F), 2mM L-Glut (Lonza Cat. N°: BE17-605E) and 100U/ml PEST (Lonza Cat. N°: DE17-605E) at a cell density of 1000-5000 cells/well (96 well plate). Cells were seeded at a density according to their exponential growth phase (normally 1000 to 5000/well). The cells were cultured at 37 °C in the dark in air containing 5% CO2. After 24h either vehicle (0.05% DMSO) or drug were added to culture medium at the indicated concentrations (10 to 0,01microM). After another 48 h, MTT (0.3 mg/ml) was added to cells, followed by incubation for 2-4h at 37 °C in the dark. The medium was then removed and the precipitated formazan was solubilized by the addition of DMSO (200 µL).
(§2) The optical density was measured at 595 nm with the iMark Microplate Reader (BioRad, USA). Data was expressed as percent growth above the level in controls and the results in figures were plotted as means ± SEM of each test point from 3 replicates.
(§3) Statistical analysis. The concentration of drug that provokes 50% reduction of cell viability (IC50) was determined by using non-linear regression analysis and data were fitted to a log concentration vs normalized response curve in GraphPad software v5 (San Diego, CA).

MDA-MB-231 = assay: MTT cell viability assay, MDA-MB-231 cells; type: cell-based, human; settings: Homo sapiens, 48 h drug exposure
Method: MDA-MB-231 [American Type Culture Collection (ATCC) reference number HTB-26]. This a human breast cancer cell line derived from a metastatic site from a person.
as §1, §2, §3

K562 = assay: MTT cell viability assay, K562 cells; type: cell-based; settings: Homo sapiens, 48 h drug exposure
Method: K562 [American Type Culture Collection (ATCC) reference number CCL-243]. This a human cancer cell line derived from the bone marrow of a person with CML.
as §1, §2, §3

MCF-7 = assay: MTT cell viability assay, MCF-7 cells; type: cell-based; settings: Homo sapiens, MCF7, 48 h drug exposure
Method: as §1, §2, §3

PANC-1 = assay: MTT cell viability assay, PANC-1 cells; type: cell-based; settings: Homo sapiens, 48 h drug exposure
Method: PANC-1 [American Type Culture Collection (ATCC) reference number CRL-1469]. This a human cancer cell line derived from the pancreas of a person.
as §1, §2, §3

DU-145 = assay: MTT cell viability assay, DU-145 cells; type: cell-based; settings: Homo sapiens, 48 h drug exposure
Method: DU-145 [American Type Culture Collection (ATCC) reference number HTB-81]. This a human prostate cancer cell line derived from a metastatic site (brain) of a person.
as §1, §2, §3

SMILES	IC50 (MDA-MB-231) [µM]	IC50 (K562) [µM]	IC50 (MCF-7) [µM]	IC50 (PANC-1) [µM]	IC50 (DU-145) [µM]	IC50 (HEL 92.1.7) [µM]
COc1ccc2c(c1)OC1=C(C(=O)c3c(O)ccc(O)c3C1=O)N(C(=O)c1ccc(C#N)cc1)C2 [Compound 13]	0.78	0.32	2.75	0.46	3.72	
NS(=O)(=O)c1ccc(N2Cc3cc(F)ccc3OC3=C2C(=O)c2c(O)ccc(O)c2C3=O)cc1 [Compound 23]	2.54	0.54	3.23	0.57	8.16	
NC(=O)c1ccc(N2Cc3cc(Cl)ccc3OC3=C2C(=O)c2c(O)ccc(O)c2C3=O)cc1 [Compound 41]	0.98	0.22	1.53	0.39	3.74	
O=C1C2=C(C(=O)c3c(O)ccc(O)c31)N(c1ccccc1)Cc1ccccc1O2 [Compound 45, 7,10-dihydroxy-12-phenyl-12,13-dihydrobenzo[f]naphtho[2,3-b][1,4]oxazepine-6,11-dione]	0.13	0.09			0.57	0.09
CN(CCO)c1ccc(N2Cc3ccccc3OC3=C2C(=O)c2ccccc2C3=O)cn1 [Compound 49]	2.63			3.43		1.22
NC(=O)c1ccc(N2Cc3cc(F)ccc3OC3=C2C(=O)c2c(O)ccc(O)c2C3=O)cc1 [Compound 55]	3.35	0.33	3.45	0.89		
COc1ccc(O)c2c1C(=O)C1=C(C2=O)N(c2cccc(C#N)c2)Cc2ccccc2O1 [Compound 66]	1.21		2.34			0.05
N#Cc1ccc(N2Cc3ccccc3OC3=C2C(=O)c2cccc(O)c2C3=O)cc1 [Compound 75]	2.7		2.36	5.49	3.89	
COc1ccc(OC)c2c1C(=O)C1=C(C2=O)N(c2cccnc2)Cc2ccccc2O1 [Compound 85, 7,10-dimethoxy-12-(pyridin-3-yl)-12,13-dihydrobenzo[f]naphtho[2,3-b][1,4]oxazepine-6,11-dione]	1.03	0.38	2.57	1.78		0.33
CN(C)CCNc1ccc(N2Cc3ccccc3OC3=C2C(=O)c2c(O)ccc(O)c2C3=O)cn1 [Compound 97, 12-(6-((2-(dimethylamino)ethyl)amino)pyridin-3-yl)-7,10-dihydroxy-12,13-dihydrobenzo[f]naphtho[2,3-b][1,4]oxazepine-6,11-dione]	0.35	0.44	0.79	0.42	0.68	
CN(C)c1ccc(N2Cc3ccccc3OC3=C2C(=O)c2ccccc2C3=O)cn1 [Compound 98]	2.17		3.54	2.94	4.7	
O=C1C2=C(C(=O)c3ccccc31)N(c1ccc(N3CCOCC3)nc1)Cc1ccccc1O2 [Compound 99]	2.09		2.28	2.61	4.3	
CN1CCN(c2ccc(N3Cc4ccccc4OC4=C3C(=O)c3ccccc3C4=O)cn2)CC1 [Compound 100, 12-(6-(4-methylpiperazin-1-yl)pyridin-3-yl)-12,13-dihydrobenzo[f]naphtho [2,3-b][1,4]oxazepine-6,11-dione]	1.63		1.95	1.8	3.4	
O=C1C2=C(Oc3ccccc3CN2c2ccc(N3CCOCC3)nc2)C(=O)c2c(O)cccc21 [Compound 104]	1.02		1.82	1.23	1.6	

Continued, in another order:

IC50 (MDA-MB-231) [µM]	IC50 (K562) [µM]	IC50 (MCF-7) [µM]	IC50 (PANC-1) [µM]	IC50 (DU-145) [µM]	SMILES	IC50 (HEL 92.1.7) [µM]
1.59	0.98				O=C1C2=C(C(=O)c3ccccc31)N(c1ccccc1)Cc1ccccc1O2 [Compound 1, 12-phenyl-12,13-dihydrobenzo[f]naphtho[2,3-b][1,4]oxazepine-6,11-dione]	0.45
1.52	0.98	5.12	4.36	8.9	O=C1C2=C(C(=O)c3ccccc31)N(c1cccnc1)Cc1ccccc1O2 [Compound 4, 12-(pyridin-3-yl)-12,13-dihydrobenzo[f]naphtho[2,3-b][1,4]oxazepine-6,11-dione]	
0.38	0.08	1.15	0.46	2.53	N#Cc1cccc(N2Cc3ccccc3OC3=C2C(=O)c2c(O)ccc(O)c2C3=O)c1 [Compound 9, 3-(7,10-dihydroxy-6,11-dioxo-6,11-dihydrobenzo[f]naphtho[2,3-b][1,4]oxazepin-12(13H)-yl)benzonitrile]	
0.63	0.09	1.85	0.36	6.18	NC(=O)c1ccc(N2Cc3ccccc3OC3=C2C(=O)c2c(O)ccc(O)c2C3=O)cc1 [Compound 10, 4-(7,10-dihydroxy-6,11-dioxo-6,11-dihydrobenzo[f]naphtho[2,3-b][1,4]oxazepin-12(13H)-yl)benzamide]	
	0.65	5.91		5.77	NC(=O)c1ccc(N2Cc3ccccc3OC3=C2C(=O)c2ccccc2C3=O)cc1 [Compound 17, 4-(6,11-dioxo-6,11-dihydrobenzo[f]naphtho[2,3-b][1,4]oxazepin-12(13H)-yl)benzamide]	
	1.39	7.9		8.36	NS(=O)(=O)c1ccc(N2Cc3ccccc3OC3=C2C(=O)c2ccccc2C3=O)cc1 [Compound 19]	1
0.39	0.13	3.17	0.47	7.35	COc1cccc2c1OC1=C(C(=O)c3c(O)ccc(O)c3C1=O)N(c1ccc(C#N)cc1)C2 [Compound 26]	
0.81	0.76	1.3	0.74		N#Cc1cccc(N2Cc3cc(Cl)ccc3OC3=C2C(=O)c2c(O)ccc(O)c2C3=O)c1 [Compound 43]	
0.73	0.06	0.97	0.32		NC(=O)c1cccc(N2Cc3cc(Cl)ccc3OC3=C2C(=O)c2c(O)ccc(O)c2C3=O)c1 [Compound 44]	
0.4	0.19	3.04		7.22	COc1cccc2c1OC1=C(C(=O)c3c(O)ccc(O)c3C1=O)N(c1ccc(C(N)=O)cc1)C2 [Compound 56]	
0.41	0.16			0.92	CN(CCO)c1ccc(N2Cc3ccccc3OC3=C2C(=O)c2c(O)ccc(O)c2C3=O)cn1 [Compound 61]	0.1
1.64		2.27	1.7	2.7	CN(C)CCNc1ccc(N2Cc3ccccc3OC3=C2C(=O)c2ccccc2C3=O)cn1 [Compound 73]	
1.8		2	1.86	2.3	O=C1C2=C(Oc3ccccc3CN2c2cccnc2)C(=O)c2c(O)cccc21 [Compound 76]	
1.18		3.98			COc1ccc(O)c2c1C(=O)C1=C(Oc3ccccc3CN1c1ccccc1)C2=O [Compound 84]	3.71
1.28			3.89		COc1ccc(OC)c2c1C(=O)C1=C(C2=O)N(c2ccc(N3CCOCC3)nc2)Cc2ccccc2O1 [Compound 86]	0.59
0.17	0.42			1	COC(=O)CNC(=O)c1ccc(N2Cc3ccccc3OC3=C2C(=O)c2c(O)ccc(O)c2C3=O)cc1 [Compound 102, methyl (4-(7,10-dihydroxy-6,11-dioxo-6,11-dihydrobenzo[f]naphtho[2,3-b][1,4]oxazepin-12(13H)-yl)benzoyl)glycinate]	
1.4		1.74	1.41	1.8	CN(C)c1ccc(N2Cc3ccccc3OC3=C2C(=O)c2cccc(O)c2C3=O)cn1 [Compound 103]	
0.71		1.99	0.69	1.51	CN(C)CCNc1ccc(N2Cc3ccccc3OC3=C2C(=O)c2cccc(O)c2C3=O)cn1 [Compound 105]	
0.74			0.71		CN1CCN(c2ccc(N3Cc4ccccc4OC4=C3C(=O)c3cccc(O)c3C4=O)cn2)CC1 [Compound 106]	
